This assay has as its target T1, human A2a receptor (Homo sapiens, UniProt P29274).
T1 construct: purchased Perkin-Elmer RBHA2AM400UA; host or cells: HEK293 cell membranes
Briefly: A2a receptor competition binding assay using Scintillation Proximity technology. The settings on record: membranes from HEK293 cells expressing human A2a receptor; 0.5 nM tritiated radioligand; SPA beads; 1 h room temperature. The method in brief: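 Membranes of HEK293 cells expressing human A2a, pretreated with adenosine deaminase, incubated 1 h at room temperature with 0.5 nM tritiated pyrazolotriazolopyrimidine antagonist (final) and compound (3000 to 0.15 nM) on WGA SPA beads in Ca/Mg-free PBS with 10 mM MgCl2. Ki from EC50 via Cheng-Prusoff.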
On the technique in general: Scintillation proximity formats need no separation of bound from free tracer.

As usually defined, the EC50 is the concentration that produces a half-maximal response. High values mean weaker potency, low ones greater potency.

T1 sequence (P29274 whole entry): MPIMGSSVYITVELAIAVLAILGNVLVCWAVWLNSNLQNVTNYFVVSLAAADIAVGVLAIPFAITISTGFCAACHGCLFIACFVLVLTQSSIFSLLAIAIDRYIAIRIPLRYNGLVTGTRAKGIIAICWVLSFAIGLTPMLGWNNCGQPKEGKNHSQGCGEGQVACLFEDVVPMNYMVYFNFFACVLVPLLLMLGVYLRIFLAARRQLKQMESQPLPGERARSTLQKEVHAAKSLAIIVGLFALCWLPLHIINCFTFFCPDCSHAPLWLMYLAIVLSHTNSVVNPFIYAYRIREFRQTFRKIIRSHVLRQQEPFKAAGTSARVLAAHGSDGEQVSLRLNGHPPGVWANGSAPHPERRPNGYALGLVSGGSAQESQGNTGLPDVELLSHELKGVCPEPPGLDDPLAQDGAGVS

As to `COc1cccc2c1nc(N)n1nc(CN3CCn4c(nnc4C(F)(F)F)C3)nc21` [Ex-153, 7-methoxy-2-((3-(trifluoromethyl)-5,6-dihydro[1,2,4]triazolo[4,3-a]pyrazin-7(8H)-yl)methyl)-[1,2,4]triazolo[1,5-c]quinazolin-5-amine], the EC50 came to 284 nM. With `COc1cccc2c1nc(N)n1nc(CN3CCc4cc(Br)cnc43)nc21` [Ex-155, 2-((5-bromo-2,3-dihydro-1H-pyrrolo[2,3-b]pyridin-1-yl)methyl)-7-methoxy-[1,2,4]triazolo[1,5-c]quinazolin-5-amine], the EC50 is 2.2 nM. Compared with the last compound, the EC50 is about 130-fold lower. Compound `COc1cccc2c1nc(N)n1nc(CN3CCCc4ccc(C)nc43)nc21` [Ex-156] displayed an EC50 of 6 nM. With `COc1cccc2c1nc(N)n1nc(CN3CCCCc4cccnc43)nc21` [Ex-157, 2-((7,8-dihydro-5H-pyrido[2,3-b]azepin-9(6H)-yl)methyl)-7-methoxy-[1,2,4]triazolo[1,5-c]quinazolin-5-amine], the EC50 was determined as 1.6 nM. Compound `COc1cccc2c1nc(N)n1nc(CN3CCCCc4ccc(Cl)nc43)nc21` [Ex-160, 2-((2-chloro-7,8-dihydro-5H-pyrido[2,3-b]azepin-9(6H)-yl)methyl)-7-methoxy-[1,2,4]triazolo[1,5-c]quinazolin-5-amine] displayed an EC50 of 1.5 nM.

Consider `COc1cccc2c1nc(N)n1nc(CN3CCCc4cccnc43)nc21` [Ex-161, 2-((3,4-dihydro-1,8-naphthyridin-1(2H)-yl)methyl)-7-methoxy-[1,2,4]triazolo[1,5-c]quinazolin-5-amine], for which the EC50 was found to be 2.1 nM. `COc1cccc2c1nc(N)n1nc(CN3CCCCc4ccc(-c5ccccn5)nc43)nc21` [Ex-162, 7-methoxy-2-((2-(pyridin-2-yl)-7,8-dihydro-5H-pyrido[2,3-b]azepin-9(6H)-yl)methyl)-[1,2,4]triazolo[1,5-c]quinazolin-5-amine]: the midpoint of the response, the EC50, lay at 2.7 nM.

With `COc1cccc2c1nc(N)n1nc(CN3Cc4ccccc4C(C)(C)C3)nc21` [Ex-163, 2-((4,4-dimethyl-3,4-dihydroisoquinolin-2(1H)-yl)methyl)-7-methoxy-[1,2,4]triazolo[1,5-c]quinazolin-5-amine], the EC50 is 2.7 nM. That is a single-digit nanomolar value. Take `COc1cc(F)cc2c1nc(N)n1nc(CN3Cc4cccnc4C3)nc21` [Ex-164, 2-((5H-pyrrolo[3,4-b]pyridin-6(7H)-yl)methyl)-9-fluoro-7-methoxy-[1,2,4]triazolo[1,5-c]quinazolin-5-amine]: the EC50 amounted to 8.6 nM. `COc1cccc2c1nc(N)n1nc(CN3CCc4ccc(-c5cncnc5)cc4C3)nc21` [Ex-165, 7-methoxy-2-((7-(pyrimidin-5-yl)-3,4-dihydroisoquinolin-2(1H)-yl)methyl)-[1,2,4]triazolo[1,5-c]quinazolin-5-amine] had an EC50 of 4.4 nM. `COc1cccc2c1nc(N)n1nc(CN3CCc4ccc(NC(=O)c5ccccn5)cc4C3)nc21` [Ex-166, N-(2-((5-amino-7-methoxy-[1,2,4]triazolo[1,5-c]quinazolin-2-yl)methyl)-1,2,3,4-tetrahydroisoquinolin-7-yl)picolinamide]: the EC50 was found to be 4.5 nM.

On to `COc1cccc2c1nc(N)n1nc(CN3CCc4ccc(NC(C)=O)cc4C3)nc21` [Ex-167], for which the EC50 stood at 7.6 nM. Consider `COc1cccc2c1nc(N)n1nc(CN3CCc4ccc(-c5ccc(F)c(F)c5)cc4C3)nc21` [Ex-168], for which a half-maximal effect (EC50) was put at 4.3 nM. `COc1cccc2c1nc(N)n1nc(CCN3CCc4ccc(-c5cncnc5)cc4C3)nc21` [Ex-172, 7-methoxy-2-(2-(7-(pyrimidin-5-yl)-3,4-dihydroisoquinolin-2(1H)-yl)ethyl)-[1,2,4]triazolo[1,5-c]quinazolin-5-amine]: the EC50 amounted to 6.1 nM. The compound `COc1cccc2c1nc(N)n1nc(CN3CCc4ccc(CC(=O)Nc5cccnc5)cc4C3)nc21` [Ex-173, 2-(2-((5-amino-7-methoxy-[1,2,4]triazolo[1,5-c]quinazolin-2-yl)methyl)-1,2,3,4-tetrahydroisoquinolin-7-yl)-N-(pyridine-3-yt)acetamide] yielded a concentration giving a half-maximal response (EC50) of 9.1 nM. This EC50 and that of the compound before are within 1.5-fold of each other. As for `COc1cccc2c1nc(N)n1nc(CN3Cc4ccc(-c5cncnc5)cc4C3)nc21` [Ex-175], the figure is 4.6 nM.

For the origin of these results see patent US10011615B2, “Heterobicyclo-substituted [1,2,4]triazolo[1,5-c]quinazolin-5-amine compounds with A2A anatagonist properties” (Merck Sharp & Dohme Corp., priority 2012, dated 2018).
